Data from article PMC5218480 (PLoS ONE, 2017).

System: MV-4-11 cells
Assay: Gene expression microarray analysis (Affymetrix PrimeView) and GSEA
Format: cell-based, human
Parameters: RFU PODN (11730768_x_at) / Fold change /veh PODN (11730768_x_at) / RFU LINC00158 (11744669_a_at) / Fold change /veh LINC00158 (11744669_a_at) / RFU DUSP10 (11751237_a_at) / Fold change /veh DUSP10 (11751237_a_at) / RFU ID3 (11757404_x_at) / Fold change /veh ID3 (11757404_x_at) / RFU PLEKHG5 (11737974_s_at) / Fold change /veh PLEKHG5 (11737974_s_at) / RFU LRRC4B (11730491_at) / Fold change /veh LRRC4B (11730491_at) / RFU GIMAP4 (11747438_a_at) / Fold change /veh GIMAP4 (11747438_a_at) / RFU KRT8 (11758183_x_at) / Fold change /veh KRT8 (11758183_x_at) / RFU CNN1 (11734310_a_at) / Fold change /veh CNN1 (11734310_a_at) / RFU VPS37D (11726825_at) / Fold change /veh VPS37D (11726825_at) / RFU C10orf10 (11716522_x_at) / Fold change /veh C10orf10 (11716522_x_at) / RFU KIR2DL2 /// KIR2DL4 /// KIR2DL5A /// KIR2DL5B /// KIR2DS1 /// KIR2DS2 /// KIR2DS3 /// KIR2DS4 /// KIR3DL3 /// KIR3DL3 /// KIR3DS1 (11738374_at) / Fold change /veh KIR2DL2 /// KIR2DL4 /// KIR2DL5A /// KIR2DL5B /// KIR2DS1 /// KIR2DS2 /// KIR2DS3 /// KIR2DS4 /// KIR3DL3 /// KIR3DL3 /// KIR3DS1 (11738374_at) / RFU C1QL1 (11718748_at) / Fold change /veh C1QL1 (11718748_at) / RFU TMPRSS4 (11747572_a_at) / Fold change /veh TMPRSS4 (11747572_a_at) / RFU HAMP (11756126_x_at) / Fold change /veh HAMP (11756126_x_at) / RFU RNFT2 (11725882_a_at) / Fold change /veh RNFT2 (11725882_a_at) / RFU NR4A2 (11747474_a_at) / Fold change /veh NR4A2 (11747474_a_at) / RFU ABCC12 (11746883_a_at) / Fold change /veh ABCC12 (11746883_a_at) / RFU TMEM136 (11760407_x_at) / Fold change /veh TMEM136 (11760407_x_at) / RFU CLDN22 /// WWC2 (11732394_at) / Fold change /veh CLDN22 /// WWC2 (11732394_at) / RFU HLA-DPB1 (11760878_x_at) / Fold change /veh HLA-DPB1 (11760878_x_at) / RFU SPINT1 (11716480_a_at) / Fold change /veh SPINT1 (11716480_a_at) / RFU GAP43 (11754022_s_at) / Fold change /veh GAP43 (11754022_s_at) / RFU A4GNT (11735810_at) / Fold change /veh A4GNT (11735810_at) / RFU PRB3 (11715151_x_at) / Fold change /veh PRB3 (11715151_x_at) / RFU TUBB4B (11761932_at) / Fold change /veh TUBB4B (11761932_at) / RFU CAPN14 (11732068_a_at) / Fold change /veh CAPN14 (11732068_a_at) / RFU TMCC2 (11721928_a_at) / Fold change /veh TMCC2 (11721928_a_at) / RFU IRGQ (11745062_a_at) / Fold change /veh IRGQ (11745062_a_at) / RFU FAM174B (11720279_a_at) / Fold change /veh FAM174B (11720279_a_at) / RFU TMPRSS4 (11748680_a_at) / Fold change /veh TMPRSS4 (11748680_a_at) / RFU FAM212B (11763350_a_at) / Fold change /veh FAM212B (11763350_a_at) / RFU PLEKHG5 (11743358_a_at) / Fold change /veh PLEKHG5 (11743358_a_at) / RFU ZSCAN30 (11745921_a_at) / Fold change /veh ZSCAN30 (11745921_a_at) / RFU CMKLR1 (11741424_a_at) / Fold change /veh CMKLR1 (11741424_a_at) / RFU LOC101060620 /// MAPK8IP1 (11723275_at) / Fold change /veh LOC101060620 /// MAPK8IP1 (11723275_at) / RFU SPTSSB (11747773_x_at) / Fold change /veh SPTSSB (11747773_x_at) / RFU PRSS12 (11739890_at) / Fold change /veh PRSS12 (11739890_at) / RFU BIN1 (11741810_x_at) / Fold change /veh BIN1 (11741810_x_at) / RFU WNT11 (11732464_a_at) / Fold change /veh WNT11 (11732464_a_at) / RFU C10orf10 (11716521_a_at) / Fold change /veh C10orf10 (11716521_a_at) / RFU C5orf56 (11738089_at) / Fold change /veh C5orf56 (11738089_at) / RFU CYB561 (11721691_x_at) / Fold change /veh CYB561 (11721691_x_at) / RFU ANKRD19P (11752326_a_at) / Fold change /veh ANKRD19P (11752326_a_at) / RFU OR2T12 /// OR2T33 /// OR2T8 (11738714_s_at) / Fold change /veh OR2T12 /// OR2T33 /// OR2T8 (11738714_s_at) / RFU VCAN (11748164_a_at) / Fold change /veh VCAN (11748164_a_at) / RFU JSRP1 (11732532_at) / Fold change /veh JSRP1 (11732532_at) / RFU KRTAP10-11 (11738290_x_at) / Fold change /veh KRTAP10-11 (11738290_x_at) / RFU MYO3A (11730013_a_at) / Fold change /veh MYO3A (11730013_a_at) / RFU EBF3 (11725865_a_at) / Fold change /veh EBF3 (11725865_a_at) / RFU CAMK2N1 (11719241_x_at) / Fold change /veh CAMK2N1 (11719241_x_at) / RFU C5orf56 (11738088_a_at) / Fold change /veh C5orf56 (11738088_a_at) / RFU OLFML3 (11715873_a_at) / Fold change /veh OLFML3 (11715873_a_at) / RFU LOC100653217 /// NTM (11731650_a_at) / Fold change /veh LOC100653217 /// NTM (11731650_a_at) / RFU MAPK11 (11762145_a_at) / Fold change /veh MAPK11 (11762145_a_at) / RFU FIZ1 (11724087_x_at) / Fold change /veh FIZ1 (11724087_x_at) / RFU OASL (11726364_x_at) / Fold change /veh OASL (11726364_x_at) / RFU SOX15 (11748057_x_at) / Fold change /veh SOX15 (11748057_x_at) / RFU CD79A (11719716_a_at) / Fold change /veh CD79A (11719716_a_at) / RFU HIST1H1D (11736915_at) / Fold change /veh HIST1H1D (11736915_at) / RFU CASKIN2 (11723855_a_at) / Fold change /veh CASKIN2 (11723855_a_at) / RFU LOC730098 (11760151_x_at) / Fold change /veh LOC730098 (11760151_x_at) / RFU OR4N2 (11742367_at) / Fold change /veh OR4N2 (11742367_at) / RFU PRRT2 (11749266_a_at) / Fold change /veh PRRT2 (11749266_a_at) / RFU SNX32 (11753110_a_at) / Fold change /veh SNX32 (11753110_a_at) / RFU CDHR5 (11726645_a_at) / Fold change /veh CDHR5 (11726645_a_at) / RFU RCAN1 (11760418_a_at) / Fold change /veh RCAN1 (11760418_a_at) / RFU FAM167A (11723789_a_at) / Fold change /veh FAM167A (11723789_a_at) / RFU FAM26E (11764081_at) / Fold change /veh FAM26E (11764081_at) / RFU ISYNA1 (11749810_s_at) / Fold change /veh ISYNA1 (11749810_s_at) / RFU ACY1 (11761880_at) / Fold change /veh ACY1 (11761880_at) / RFU 11764098_at / Fold change /veh 11764098_at / RFU SAMD14 (11745864_x_at) / Fold change /veh SAMD14 (11745864_x_at) / RFU NPB (11741838_a_at) / Fold change /veh NPB (11741838_a_at) / RFU TMPRSS6 (11731388_a_at) / Fold change /veh TMPRSS6 (11731388_a_at) / RFU KRTAP10-2 (11738614_at) / Fold change /veh KRTAP10-2 (11738614_at) / RFU ARHGAP8 /// PRR5-ARHGAP8 (11727945_x_at) / Fold change /veh ARHGAP8 /// PRR5-ARHGAP8 (11727945_x_at) / RFU KRTAP5-7 /// NADSYN1 (11734609_at) / Fold change /veh KRTAP5-7 /// NADSYN1 (11734609_at) / RFU RASL12 (11751679_a_at) / Fold change /veh RASL12 (11751679_a_at) / RFU CDKN2B (11736163_a_at) / Fold change /veh CDKN2B (11736163_a_at) / RFU PRF1 (11729649_at) / Fold change /veh PRF1 (11729649_at) / RFU, ZNF638 /// ZNF638-IT1 / Fold change vs veh, ZNF638 /// ZNF638-IT1 / RFU, PANK3 / Fold change vs veh, PANK3 / RFU, SH3YL1 / Fold change vs veh, SH3YL1 / RFU, ZEB2 / Fold change vs veh, ZEB2 / RFU, NRIP1 / Fold change vs veh, NRIP1 / RFU, PTTG1IP / Fold change vs veh, PTTG1IP / RFU, CAPN2 / Fold change vs veh, CAPN2 / RFU, MED14 / Fold change vs veh, MED14 / RFU, SNORA58 / Fold change vs veh, SNORA58 / RFU, C1orf63 / Fold change vs veh, C1orf63 / RFU, LRRFIP1 / Fold change vs veh, LRRFIP1 / RFU, NDUFAF7 / Fold change vs veh, NDUFAF7 / RFU, SLC12A2 / Fold change vs veh, SLC12A2 / RFU, IBTK / Fold change vs veh, IBTK / RFU, ESF1 / Fold change vs veh, ESF1 / Fold change vs veh, TMEM50B / RFU, TAOK1 / Fold change vs veh, TAOK1 / RFU, ACBD3 / Fold change vs veh, ACBD3 / RFU, TMA16 / Fold change vs veh, TMA16 / RFU, RWDD3 / Fold change vs veh, RWDD3 / RFU, BCAT1 / Fold change vs veh, BCAT1 / RFU, EDEM3 / Fold change vs veh, EDEM3 / RFU, TMEM33 / Fold change vs veh, TMEM33 / RFU, WDR75 / Fold change vs veh, WDR75 / RFU, AHCTF1 / Fold change vs veh, AHCTF1 / RFU, TFRC / Fold change vs veh, TFRC / RFU, ZDHHC17 / Fold change vs veh, ZDHHC17 / RFU, NOM1 / Fold change vs veh, NOM1 / RFU, ARL8B / Fold change vs veh, ARL8B / RFU, ZBTB11 / Fold change vs veh, ZBTB11 / RFU, TAMM41 / Fold change vs veh, TAMM41 / RFU, KIAA1704 /// LOC100996395 / Fold change vs veh, KIAA1704 /// LOC100996395 / RFU, ING1 / Fold change vs veh, ING1 / RFU, TRMT61B / Fold change vs veh, TRMT61B / RFU, FUBP3 / Fold change vs veh, FUBP3 / RFU, TP53 / Fold change vs veh, TP53 / RFU, TNKS2 / Fold change vs veh, TNKS2 / RFU, ZFP14 / Fold change vs veh, ZFP14 / RFU, ACTR2 / Fold change vs veh, ACTR2 / RFU, PPP3R1 / Fold change vs veh, PPP3R1 / RFU, PIK3R1 / Fold change vs veh, PIK3R1 / RFU, HNRNPA1 / Fold change vs veh, HNRNPA1 / RFU, RNF170 / Fold change vs veh, RNF170 / RFU, ZNF28 / Fold change vs veh, ZNF28 / RFU, RNGTT / Fold change vs veh, RNGTT / RFU, OGT / Fold change vs veh, OGT / RFU, BRD1 / Fold change vs veh, BRD1 / RFU, MARS / Fold change vs veh, MARS / RFU, ZNF655 / Fold change vs veh, ZNF655 / RFU, FAHD1 / Fold change vs veh, FAHD1 / RFU, BDP1 / Fold change vs veh, BDP1 / RFU, LRRCC1 / Fold change vs veh, LRRCC1 / RFU, ARID1A / Fold change vs veh, ARID1A / RFU, ZNF146 / Fold change vs veh, ZNF146 / RFU, ZNF330 / Fold change vs veh, ZNF330 / RFU, GPN3 / Fold change vs veh, GPN3 / RFU, C9orf123 / Fold change vs veh, C9orf123 / RFU, N4BP2L2 / Fold change vs veh, N4BP2L2 / RFU, ARFIP1 / Fold change vs veh, ARFIP1 / RFU, FAM179B / Fold change vs veh, FAM179B / RFU, BCL10 / Fold change vs veh, BCL10 / RFU, UHRF1BP1L / Fold change vs veh, UHRF1BP1L / RFU, BET1 / Fold change vs veh, BET1 / RFU, CNOT2 / Fold change vs veh, CNOT2 / RFU, ZNF268 / Fold change vs veh, ZNF268 / Fold change vs veh, ZNF507 / RFU, DGCR2 / Fold change vs veh, DGCR2 / RFU, WDSUB1 / Fold change vs veh, WDSUB1 / Fold change vs veh, HSP90B1 /// MIR3652 / RFU, ADSS / Fold change vs veh, ADSS / RFU, GK / Fold change vs veh, GK / RFU, ZNF148 / Fold change vs veh, ZNF148 / RFU, TAF9 / Fold change vs veh, TAF9 / RFU, SLC1A5 / Fold change vs veh, SLC1A5 / RFU, SLMO2 / Fold change vs veh, SLMO2 / RFU, ABCC4 / Fold change vs veh, ABCC4 / RFU, LOC101060439 /// RAP1B / Fold change vs veh, LOC101060439 /// RAP1B / RFU, RFX7 / Fold change vs veh, RFX7 / RFU, GTPBP10 / Fold change vs veh, GTPBP10 / RFU, CNEP1R1 / Fold change vs veh, CNEP1R1 / RFU, BIVM-ERCC5 /// ERCC5 / Fold change vs veh, BIVM-ERCC5 /// ERCC5 / RFU, ILF3 / Fold change vs veh, ILF3 / RFU 11762660_at / Fold change /veh 11762660_at / RFU VCAN (11757783_s_at) / Fold change /veh VCAN (11757783_s_at) / RFU DDX43 (11728927_at) / Fold change /veh DDX43 (11728927_at) / RFU KRT8 (11758188_x_at) / Fold change /veh KRT8 (11758188_x_at) / RFU NKD1 (11759106_at) / Fold change /veh NKD1 (11759106_at) / RFU SRD5A1 (11742802_a_at) / Fold change /veh SRD5A1 (11742802_a_at) / RFU TPSAB1 /// TPSB2 (11721975_s_at) / Fold change /veh TPSAB1 /// TPSB2 (11721975_s_at) / RFU GSTM3 (11746129_a_at) / Fold change /veh GSTM3 (11746129_a_at) / RFU IL23R (11737362_x_at) / Fold change /veh IL23R (11737362_x_at) / RFU TMEM51 (11727254_a_at) / Fold change /veh TMEM51 (11727254_a_at) / RFU PIWIL2 (11732686_x_at) / Fold change /veh PIWIL2 (11732686_x_at) / RFU ORM1 (11744905_x_at) / Fold change /veh ORM1 (11744905_x_at) / RFU CCDC152 (11743942_at) / Fold change /veh CCDC152 (11743942_at) / RFU ECM1 (11717891_a_at) / Fold change /veh ECM1 (11717891_a_at) / RFU IL23R (11748794_a_at) / Fold change /veh IL23R (11748794_a_at) / RFU TNFAIP8L3 (11732012_x_at) / Fold change /veh TNFAIP8L3 (11732012_x_at) / RFU MBOAT4 (11741988_at) / Fold change /veh MBOAT4 (11741988_at) / RFU 11764193_at / Fold change /veh 11764193_at / RFU TMEM53 (11763286_at) / Fold change /veh TMEM53 (11763286_at) / RFU MAGEB2 (11727129_at) / Fold change /veh MAGEB2 (11727129_at) / RFU TMEM200A (11744735_a_at) / Fold change /veh TMEM200A (11744735_a_at) / RFU CCDC152 (11751479_a_at) / Fold change /veh CCDC152 (11751479_a_at) / RFU FAM211A (11726209_a_at) / Fold change /veh FAM211A (11726209_a_at) / RFU RGS16 (11746705_a_at) / Fold change /veh RGS16 (11746705_a_at) / RFU VCAN (11755009_s_at) / Fold change /veh VCAN (11755009_s_at) / RFU RHOB (11743442_s_at) / Fold change /veh RHOB (11743442_s_at) / RFU RGS16 (11720943_a_at) / Fold change /veh RGS16 (11720943_a_at) / RFU RGS16 (11720944_at) / Fold change /veh RGS16 (11720944_at) / RFU, VPS4B / Fold change vs veh, VPS4B / RFU, CREB1 / Fold change vs veh, CREB1 / RFU, DNAJC13 / Fold change vs veh, DNAJC13 / RFU, GNAQ / Fold change vs veh, GNAQ / RFU, CDK5R1 / Fold change vs veh, CDK5R1 / RFU, ZRANB3 / Fold change vs veh, ZRANB3 / RFU, CUL4A / Fold change vs veh, CUL4A / RFU, CCNY / Fold change vs veh, CCNY / RFU, UFL1 / Fold change vs veh, UFL1 / RFU, COG3 / Fold change vs veh, COG3 / RFU, DIAPH2 / Fold change vs veh, DIAPH2 / RFU, SKA2 / Fold change vs veh, SKA2 / RFU, AFF3 / Fold change vs veh, AFF3 / RFU, LMF1 / Fold change vs veh, LMF1 / RFU, IPO11 / Fold change vs veh, IPO11 / RFU, DFFB / Fold change vs veh, DFFB / RFU, FOXP1 / Fold change vs veh, FOXP1 / RFU, CARD8 / Fold change vs veh, CARD8 / RFU, STRN3 / Fold change vs veh, STRN3 / RFU, ADK / Fold change vs veh, ADK / RFU, RASSF2 / Fold change vs veh, RASSF2 / RFU, WIPF1 / Fold change vs veh, WIPF1 / RFU, LARP1B / Fold change vs veh, LARP1B / RFU, RASA1 / Fold change vs veh, RASA1 / RFU, RB1 / Fold change vs veh, RB1 / RFU, PPFIA1 / Fold change vs veh, PPFIA1 / RFU, MAT2A / Fold change vs veh, MAT2A / RFU, CCT5 / Fold change vs veh, CCT5 / RFU, WDR92 / Fold change vs veh, WDR92 / RFU, CUX1 / Fold change vs veh, CUX1 / RFU, TTC7A / Fold change vs veh, TTC7A / RFU, TMEM135 / Fold change vs veh, TMEM135 / RFU, DEPTOR / Fold change vs veh, DEPTOR / RFU, CPM / Fold change vs veh, CPM / RFU, DNAJB6 / Fold change vs veh, DNAJB6 / RFU, CACNA2D3 / Fold change vs veh, CACNA2D3 / RFU, DTX4 / Fold change vs veh, DTX4 / RFU, TFCP2 / Fold change vs veh, TFCP2 / RFU, GMCL1 /// GMCL1P1 / Fold change vs veh, GMCL1 /// GMCL1P1 / RFU, AEBP2 / Fold change vs veh, AEBP2 / RFU, SNHG1 /// SNORD22 /// SNORD25 /// SNORD26 /// SNORD27 /// SNORD28 /// SNORD29 /// SNORD31 / Fold change vs veh, SNHG1 /// SNORD22 /// SNORD25 /// SNORD26 /// SNORD27 /// SNORD28 /// SNORD29 /// SNORD31 / Fold change (Aza/veh), C12orf56 (ProbeSet 11735607_a_at) / Fold change (ACY-1035/veh), C12orf56 (ProbeSet 11735607_a_at) / Fold change (Aza/veh), FGFR1OP (ProbeSet 11751329_s_at) / Fold change (ACY-1035/veh), FGFR1OP (ProbeSet 11751329_s_at) / Fold change (Aza/veh), VPS36 (ProbeSet 11739960_a_at) / Fold change (ACY-1035/veh), VPS36 (ProbeSet 11739960_a_at) / RFU SYPL1 (11715823_x_at) / Fold change /veh SYPL1 (11715823_x_at) / RFU IGFBP7 (11715501_s_at) / Fold change /veh IGFBP7 (11715501_s_at) / RFU REEP3 (11722064_at) / Fold change /veh REEP3 (11722064_at) / RFU IGLL1 (11728026_x_at) / Fold change /veh IGLL1 (11728026_x_at): dose or concentration left out as unconfirmed
Conditions: MV-4-11 cells, 48 hours

## Nc1ncn([C@@H]2O[C@H](CO)[C@@H](O)[C@H]2O)c(=O)n1 [azacitidine]
  Fold change /veh SPINT1 (11716480_a_at): 1.00
